Results on one substance are retold here after publication PMC6079455, “Discovery of Novel Caeridins from the Skin Secretion of the Australian White's Tree Frog, Litoria caerulea” (International Journal of Genomics, 2018).

Ends that are not written are not given here.

For orientation: MBC means the lowest tested concentration that kills the bacteria rather than only halting them. One may read the MIC as the smallest concentration in the dilution series that meets the test's criterion for growth inhibition. For orientation: MFC means the lowest tested concentration that kills the fungus rather than only halting it.

One data set concerns E. coli NCTC10418. Put plainly: Antimicrobial test (broth microdilution). The format is cell-based, Escherichia coli. The method, then:
(§1) The antimicrobial activities were tested by the broth microdilution method and evaluated by the determination of MIC values against different tested microorganisms, the Gram-positive bacteria, S. aureus (NCTC 10788), E. faecalis (NCTC12697), and MRSA (NCTC 12493); the Gram-negative bacterium, E. coli (NCTC 10418); and the yeast, C. albicans (NCYC 1467). The microorganisms were cultured to their log phase in MHB and diluted to 5 × 10^5 CFU/ml then subsequently treated with peptide solutions of gradient concentrations. After incubation at 37°C overnight, the growth of microorganisms was detected at a wavelength of 550 nm using a Synergy HT plate reader (Biolise BioTek ELx808, Winooski, VT, USA). The MICs were determined as the lowest concentration of peptide where […].
Background: Broth dilution looks for growth in wells or tubes with falling amounts of substance.

The subject of another data set is E. faecalis NCTC12697. Put plainly: Antimicrobial test (broth microdilution). The format is cell-based, Enterococcus faecalis. Here is the method: as §1
A further data set concerns E. coli. As to the kind of experiment: Membrane permeability on E. coli (ONPG / β-galactosidase). The class given is cell-based, Escherichia coli. Particulars: ONPG hydrolysis, absorbance 420 nm, 0-30 min, 37°C, 1 × 10^8 CFU/ml, PBS pH 7.4. Here is the method:
The membrane permeabilsation of E.coli was determined by measuring the release of β-galactosidase activity from E. coli into the culture medium with ONPG as the substrate. The log-phase E. coli was grown in MHB medium containing 2% lactose at 37°C, and the cells were pelleted. The cell pellets were suspended in 10 mM PBS (pH 7.4) containing 1.5 mM ONPG and diluted to 1 × 10^8 CFU/ml. Aliquots of cells were incubated with different concentrations of peptides at 37°C. Permeabilisation was measured at 420 nm every 2 min from 0 to 30 min, which reflects ONPG influx into the cells working as an indicator of the permeability of the tested peptides.

Another data set relates to MRSA NCTC12493. As to the kind of experiment: Antimicrobial test (broth microdilution). The class given is cell-based, methicillin-resistant S. aureus. The method, then: as §1
Data set [1] deals with rat urinary bladder smooth muscle. Put plainly: Rat urinary bladder smooth muscle test. As to conditions: 10^−11 to 10^−6 M. The method, then: (§2) Female Wistar rats (250–300 g) were euthanized by CO2 asphyxiation followed by cervical dislocation under appropriate Home Office (UK) animal licenses. Full urinary bladder and ileum were carefully removed from the abdomen, then placed in cold Kreb's solution (118 mM NaCl, 4.7 mM KCl, 25 mM NaHCO3, 1.15 mM NaH2PO4, 2.5 mM CaCl2, 1.1 mM MgCl2, and 5.6 mM glucose), equilibrated with a carbogen mixture (95% O2, 5% CO2). The prepared smooth muscles linked with transducers were placed in 2 ml capacity organ baths with Kreb's solution flowing through at 2 ml/min and maintained at 37°C with constant bubbling of carbogen gas mixture (95% O2, […]) and equilibrated for 1 h prior to analysis. Then the viability of these smooth muscle preparations was tested by 60 mM KCl. Caeridins were tested at sequential molar concentrations in the range from 10^−6 M to 10^−11 M. Dose-response curves were depicted for each Caeridin on individual smooth muscle preparations (n = 5). Changes in tension of the smooth muscle preparations were detected by pressure transducers connected to a PowerLab System (ADInstruments Pty Ltd.). Data were recorded and calculated to obtain the means of responses and standard error of means (SEM). The dose-response curve of each Caeridin was established using best-fit algorithms through the data analysis package provided by GraphPad Prism (Version 6.0; GraphPad Software Inc., San Diego, CA, USA), and the comparative EC50 value for each peptide was depicted.

The subject of a further data set is horse erythrocytes. As to the kind of experiment: Haemolytic test. The class given is cell-based. As to conditions: 32 μM, horse red blood cells, 37°C, 2 h, relative to 1% Triton X-100. The method, then:
The haemolysis of Caeridins was tested on prepared defrinated horse red blood cells (TCS Biosciences Ltd., Buckingham, UK) by incubating equal volumes of peptide solutions with erythrocyte suspensions at 37°C for 2 H. Maximum haemolysis control was included by incubating equal volumes of 1% Triton X-100 (Sigma-Aldrich, St. Louis, MO, USA) with erythrocyte suspensions. Lysis of erythrocytes was detected by the measurement of supernatant absorbance at a wavelength of 550 nm using a Synergy HT plate reader (Biolise BioTek ELx808, Winooski, VT, USA). The level of haemolysis was as calculated as (3) Haemolysis %=A−A0/A1−A0×100%, where A represents the absorbance with peptide treatments, A0 represents the average absorbance in untreated erythrocytes, and A1 represents the average absorbance in the maximum haemolysis control (1% Triton X-100-treated).

For another data set, the system named is C. albicans NCYC1467. Put plainly: Antimicrobial test (broth microdilution). The class given is cell-based, Candida albicans. Here is the method: as §1
A further data set concerns S. aureus. As to the kind of experiment: Membrane permeability on S. aureus (SYTOX Green). Particulars: 2 h, 37°C, 1 × 10^8 CFU/ml, relative to 70% isopropanol. The format is cell-based, Staphylococcus aureus. Here is the method: The cell membrane permeability of S. aureus was tested with SYTOX Green Nucleic Acid Stain (Life Technologies, Carlsbad, CA, USA). The log-phase S. aureus was pelleted and suspended in 5% TSB in 0.85% NaCl solution to achieve 1 × 10^8 CFU/ml cells which was then treated with peptide solutions at 37°C for 2 h. The maximum membrane-compromised S. aureus was produced by 70% isopropanol treatment. Subsequently, cells were mixed with 5 μM SYTOX Green stain and incubated in the dark for 10 min. The fluorescence was measured in a 37°C Synergy HT plate reader (Biolise BioTek ELx808, Winooski, VT, USA) at excitation and emission wavelengths of 480 nm and 528 nm, respectively. The membrane permeability was calculated as (1) Membrane permeability%=F−F0/F1−F0×100%, where F represents the processed fluorescence intensity with peptide treatments, F0 represents the processed fluorescence intensity of untreated S. aureus, and F1 represents the processed fluorescence intensity in the maximum membrane-compromised S. aureus (70% isopropanol-treated). The fluorescence intensities of background were subtracted prior to calculation.

The subject of a further data set is rat ileum smooth muscle. Put plainly: Rat ileum smooth muscle test. As to conditions: 10^−11 to 10^−6 M. The method, then:
as §2

The test system of a further data set is S. aureus NCTC10788. As to the kind of experiment: Antimicrobial test (broth microdilution). The class given is cell-based, Staphylococcus aureus. Here is the method: as §1
Where [2] appears, read: MHB, 5 × 10^5 CFU/ml, 37°C overnight, 550 nm.

Consider GLFDIVGKLLGGLGL-NH2 [Caeridin-a1], for which the MBC in the data set with E. coli NCTC10418 was found to be 64 µM; with E. faecalis NCTC12697 it was 64 µM; in the data set with MRSA NCTC12493 it was 32 µM; in the data set with S. aureus NCTC10788 it was 16 µM. Besides, the minimum inhibitory concentration (MIC) came to 32 µM in the data set with E. coli NCTC10418 (setting [2]); 32 µM with E. faecalis NCTC12697 (setting [2]); 16 µM with MRSA NCTC12493 (setting [2]); 32 µM in the data set with C. albicans NCYC1467 (setting [2]); 8 µM with S. aureus NCTC10788 (setting [2]). For the same substance, in the data set with E. coli, the “membrane permeabilisation of E. coli at MIC and MBC” value is “induced inner membrane permeabilisation within 30 min”. Besides, in [1], the “smooth muscle activity (rat bladder)” value was “did not show any smooth muscle activities”. Moreover, the haemolysis in the data set with horse erythrocytes amounted to 18%. The MFC in the data set with C. albicans NCYC1467 came out at 64 µM. In addition, the “membrane permeability of S. aureus at MBC” value with S. aureus (peptide at its MBC) is recorded as “massively compromised”. The “membrane permeability of S. aureus at MIC” value with S. aureus (peptide at its MIC) was “remained intact”. Moreover, the “smooth muscle activity (rat ileum)” value in the data set on rat ileum smooth muscle was “did not show any smooth muscle activities”.
